Like-named read-outs stand apart in the source and are kept apart here.
How the values were obtained:
[1] = test system: NCI-H358 cells (K-Ras G12C); experiment: CellTiter-Glo cell viability, NCI-H358; format: cell-based, human; conditions: Homo sapiens, NCI-H358, 120 h, read-out: H358 Cell Viability IC50
Procedure, shortened: (§1)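 Endpoint: CellTiter-Glo luminescence on day 5, following ~30 min at room temperature. Data as (sample/mean DMSO)×100, four-parameter logistic fit.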

[2] = test system: Capan-1 cells (K-Ras G12V); experiment: CellTiter-Glo cell viability, Capan-1; format: cell-based, human; conditions: Homo sapiens, CAPAN-1, 120 h, read-out: Capan-1 Cell Viability IC50
Procedure, shortened: as §1

KRAS G12C = KRAS G12C (Homo sapiens (Human), UniProt P01116+P62937, G12C); experiment: Ras-Raf disruption/FRET/MOA assay (BRAF RBD, Cyclophilin A); format: biochemical; conditions: read-out: KRAS G12C FRET IC50
Sequence of KRAS G12C (P01116-2 other isoform, or with tags, fused parts or gaps G12C): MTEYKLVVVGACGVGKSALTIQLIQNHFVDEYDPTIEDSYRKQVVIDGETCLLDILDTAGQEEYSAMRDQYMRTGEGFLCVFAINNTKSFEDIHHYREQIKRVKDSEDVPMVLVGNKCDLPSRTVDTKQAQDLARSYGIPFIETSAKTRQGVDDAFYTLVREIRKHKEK
Sequence of KRAS G12C (P62937 whole entry): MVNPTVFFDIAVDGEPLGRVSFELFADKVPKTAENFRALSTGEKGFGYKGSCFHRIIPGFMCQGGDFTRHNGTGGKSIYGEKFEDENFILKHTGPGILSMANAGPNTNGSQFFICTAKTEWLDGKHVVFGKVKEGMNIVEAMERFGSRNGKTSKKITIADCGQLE
Procedure, shortened: (§2)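 Ras-GMPPNP (12.5 nM), BRAF RBD (50 nM) and 25 μM Cyclophilin A were incubated with compound for 3 h at 25° C, then detected 1.5 h with anti-His Eu and anti-GST APC; IC50 values follow from the reduced TR-FRET ratio.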

KRAS G12D = KRAS G12D (Homo sapiens (Human), UniProt P01116+P62937, G12D); experiment: as above; format: biochemical; conditions: read-out: KRAS G12D FRET IC50
Sequence of KRAS G12D (P01116 other isoform, or with tags, fused parts or gaps G12D): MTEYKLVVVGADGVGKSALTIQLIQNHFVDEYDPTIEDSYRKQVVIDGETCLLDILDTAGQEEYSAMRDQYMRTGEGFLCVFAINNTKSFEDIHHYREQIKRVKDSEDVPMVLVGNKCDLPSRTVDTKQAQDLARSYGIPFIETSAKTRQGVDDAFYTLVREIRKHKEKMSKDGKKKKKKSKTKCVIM
Sequence of KRAS G12D (P62937 whole entry): as the sequence (P62937 whole entry) above
Procedure, shortened: as §2

KRAS G12S = KRAS G12S (Homo sapiens (Human), UniProt P01116+P62937, G12S); experiment: as above; format: biochemical; conditions: read-out: KRAS G12S FRET IC50
Sequence of KRAS G12S (P01116 other isoform, or with tags, fused parts or gaps G12S): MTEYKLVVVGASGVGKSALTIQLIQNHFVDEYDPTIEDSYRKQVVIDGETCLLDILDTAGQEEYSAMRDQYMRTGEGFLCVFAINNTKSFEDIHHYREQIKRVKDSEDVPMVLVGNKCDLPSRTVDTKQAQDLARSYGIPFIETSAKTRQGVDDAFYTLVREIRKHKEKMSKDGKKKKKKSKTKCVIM
Sequence of KRAS G12S (P62937 whole entry): as the sequence (P62937 whole entry) above
Procedure, shortened: as §2

KRAS G12V = KRAS G12V (Homo sapiens (Human), UniProt P01116+P62937, G12V); experiment: as above; format: biochemical; conditions: read-out: KRAS G12V FRET IC50
Sequence of KRAS G12V (P01116 other isoform, or with tags, fused parts or gaps G12V): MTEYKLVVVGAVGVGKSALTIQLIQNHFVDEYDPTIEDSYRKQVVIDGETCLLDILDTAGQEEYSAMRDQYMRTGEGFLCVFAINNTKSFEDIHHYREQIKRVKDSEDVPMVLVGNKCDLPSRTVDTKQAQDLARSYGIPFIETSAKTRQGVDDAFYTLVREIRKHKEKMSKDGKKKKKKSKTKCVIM
Sequence of KRAS G12V (P62937 whole entry): as the sequence (P62937 whole entry) above
Procedure, shortened: as §2

KRAS G13C = KRAS G13C (Homo sapiens (Human), UniProt P01116+P62937, G13C); experiment: as above; format: biochemical; conditions: read-out: KRAS G13C FRET IC50
Sequence of KRAS G13C (P01116 other isoform, or with tags, fused parts or gaps G13C): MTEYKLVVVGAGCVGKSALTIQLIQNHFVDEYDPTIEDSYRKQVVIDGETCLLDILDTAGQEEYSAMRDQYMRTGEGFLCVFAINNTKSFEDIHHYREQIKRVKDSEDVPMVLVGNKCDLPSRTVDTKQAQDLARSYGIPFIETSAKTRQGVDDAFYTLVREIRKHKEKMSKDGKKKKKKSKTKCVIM
Sequence of KRAS G13C (P62937 whole entry): as the sequence (P62937 whole entry) above
Procedure, shortened: as §2

KRAS G13D = KRAS G13D (Homo sapiens (Human), UniProt P01116+P62937, G13D); experiment: as above; format: biochemical; conditions: read-out: KRAS G13D FRET data IC50
Sequence of KRAS G13D (P01116 other isoform, or with tags, fused parts or gaps G13D): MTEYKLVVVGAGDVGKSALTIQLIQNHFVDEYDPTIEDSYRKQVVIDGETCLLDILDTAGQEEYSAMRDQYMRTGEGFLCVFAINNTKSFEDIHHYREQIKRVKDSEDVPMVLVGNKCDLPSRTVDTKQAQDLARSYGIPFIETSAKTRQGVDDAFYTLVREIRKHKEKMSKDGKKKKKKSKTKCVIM
Sequence of KRAS G13D (P62937 whole entry): as the sequence (P62937 whole entry) above
Procedure, shortened: as §2

KRAS Q61H = KRAS Q61H (Homo sapiens (Human), UniProt P01116+P62937, Q61H); experiment: as above; format: biochemical
Sequence of KRAS Q61H (P01116 other isoform, or with tags, fused parts or gaps Q61H): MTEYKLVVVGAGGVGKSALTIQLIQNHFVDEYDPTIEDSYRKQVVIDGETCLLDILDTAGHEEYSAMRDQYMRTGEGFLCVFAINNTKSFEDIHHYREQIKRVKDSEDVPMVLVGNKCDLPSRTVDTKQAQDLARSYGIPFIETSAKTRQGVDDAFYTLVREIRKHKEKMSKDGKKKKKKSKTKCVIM
Sequence of KRAS Q61H (P62937 whole entry): as the sequence (P62937 whole entry) above
Procedure, shortened: as §2

KRAS WT = KRAS WT (Homo sapiens (Human), UniProt P01116+P62937); experiment: as above; format: biochemical; conditions: read-out: KRAS WT FRET data IC50
Sequence of KRAS WT (P01116 other isoform, or with tags, fused parts or gaps): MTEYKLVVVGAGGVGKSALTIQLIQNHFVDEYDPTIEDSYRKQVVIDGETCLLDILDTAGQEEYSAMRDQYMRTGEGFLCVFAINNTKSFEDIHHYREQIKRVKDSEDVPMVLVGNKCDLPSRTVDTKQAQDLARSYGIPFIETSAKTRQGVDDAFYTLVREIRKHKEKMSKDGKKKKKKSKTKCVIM
Sequence of KRAS WT (P62937 whole entry): as the sequence (P62937 whole entry) above
Procedure, shortened: as §2

NRAS G12C = NRAS G12C (Homo sapiens (Human), UniProt P01111+P62937, G12C); experiment: as above; format: biochemical; conditions: read-out: NRAS G12C FRET data IC50
Sequence of NRAS G12C (P01111 whole entry G12C): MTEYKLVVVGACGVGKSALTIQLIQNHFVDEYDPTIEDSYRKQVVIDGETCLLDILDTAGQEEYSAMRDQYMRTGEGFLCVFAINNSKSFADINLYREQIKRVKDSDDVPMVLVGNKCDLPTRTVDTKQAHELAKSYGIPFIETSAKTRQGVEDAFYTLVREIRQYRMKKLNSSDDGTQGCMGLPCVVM
Sequence of NRAS G12C (P62937 whole entry): as the sequence (P62937 whole entry) above
Procedure, shortened: (§3)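 Measured: compound-facilitated Cyclophilin A:Ras complex blocking RAF RBD binding. Conditions: 12.5 nM Ras-GMPPNP, 50 nM BRAF RBD, 25 μM CypA, 3 h plus 1.5 h detection. Output: IC50 from TR-FRET ratio.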

NRAS Q61R = NRAS Q61R (Homo sapiens (Human), UniProt P01111+P62937, Q61R); experiment: as above; format: biochemical
Sequence of NRAS Q61R (P01111 whole entry Q61R): as the sequence (P01111 whole entry G12C) above, with C12G, Q61R counted along it
Sequence of NRAS Q61R (P62937 whole entry): as the sequence (P62937 whole entry) above
Procedure, shortened: as §3

NRAS WT = NRAS WT (Homo sapiens (Human), UniProt P01111+P62937); experiment: as above; format: biochemical
Sequence of NRAS WT (P01111 whole entry): as the sequence (P01111 whole entry G12C) above, with C12G counted along it
Sequence of NRAS WT (P62937 whole entry): as the sequence (P62937 whole entry) above
Procedure, shortened: as §3

[3] = test system: K-Ras G12C (NCI-H358 cells); experiment: Potency assay: pERK in NCI-H358 cells; format: cell-based, human; conditions: Homo sapiens, read-out: pERK EC50 (H358 KRAS G12C)
Procedure, shortened: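 Cells plated the day before were exposed for 4 h at 37° C, 5% CO2 to a 10-point, 3-fold DMSO dilution series (10 mM top stock), in duplicate. Phospho-ERK was read by AlphaLISA SureFire Ultra or by In-Cell Western with DRAQ5 DNA stain, and IC50 came from a 4-parameter sigmoidal fit.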

SMILES	IC50 ([1]; K-Ras G12C, 5-day treatment) [nM]	IC50 ([2]; K-Ras G12V, 5-day treatment) [nM]	IC50 (KRAS G12C) [nM]	IC50 (KRAS G12D) [nM]	IC50 (KRAS G12S) [nM]	IC50 (KRAS G12V) [nM]	IC50 (KRAS G13C) [nM]	IC50 (KRAS G13D) [nM]	IC50 (KRAS Q61H) [nM]	IC50 (KRAS WT) [nM]	IC50 (NRAS G12C) [nM]	IC50 (NRAS Q61R) [nM]	IC50 (NRAS WT) [nM]	EC50 ([3]; NCI-H358 cells, 4 hours) [nM]	IC50 [1] [nM]	IC50 [2] [nM]	EC50 ([3]; NCI-H358, 4 h) [nM]
CCn1c(-c2cccnc2[C@H](C)OC)c2c3cc(ccc31)-c1csc(n1)C[C@H](NC(=O)[C@H](C(C)C)N(C)C(=O)N1CC(S(C)(=O)=O)C1)C(=O)N1CCC[C@H](N1)C(=O)OCC(C)(C)C2 [Compound A383]	10 to 100	10 to 100	10 to 100	100 to 1000	100 to 1000	100 to 1000	100 to 1000	100 to 1000	10 to 100	100 to 1000	10 to 100	100 to 1000	100 to 1000	< 5000	–	–	–
CCn1c(-c2cccnc2[C@H](C)OC)c2c3cc(ccc31)-c1csc(n1)C[C@H](NC(=O)[C@H](C(C)C)N(C)C(=O)N1C[C@@H]3OCCN(C)[C@H]3C1)C(=O)N1CCC[C@H](N1)C(=O)OCC(C)(C)C2 [Compound A445]	10 to 100	10 to 100	100 to 1000	1000 to 10000	100 to 1000	100 to 1000	100 to 1000	100 to 1000	100 to 1000	100 to 1000	100 to 1000	100 to 1000	100 to 1000	< 5000	–	–	–
CCn1c(-c2cccnc2[C@H](C)OC)c2c3cc(ccc31)-c1csc(n1)C[C@H](NC(=O)[C@H](C(C)C)N(C)C(=O)N1CCCC[C@H](N(C)C)C1)C(=O)N1CCC[C@H](N1)C(=O)OCC(C)(C)C2 [Compound A491]	10 to 100	10 to 100	10 to 100	100 to 1000	10 to 100	100 to 1000	100 to 1000	100 to 1000	10 to 100	10 to 100	10 to 100	100 to 1000	10 to 100	< 5000	–	–	–
CCn1c(-c2cccnc2[C@H](C)OC)c2c3cc(ccc31)-c1csc(n1)C[C@H](NC(=O)[C@H](C(C)C)N(C)C(=O)N1CC3(CC(N(C)C4COC4)C3)C1)C(=O)N1CCC[C@H](N1)C(=O)OCC(C)(C)C2 [Compound A511]	10 to 100	10 to 100	100 to 1000	1000 to 10000	100 to 1000	100 to 1000	100 to 1000	1000 to 10000	100 to 1000	100 to 1000	100 to 1000	100 to 1000	100 to 1000	< 5000	–	–	–
CCn1c(-c2cccnc2[C@H](C)OC)c2c3cc(ccc31)-c1csc(n1)C[C@H](NC(=O)[C@H](C(C)C)N(C)C(=O)N1C3COCC1C3)C(=O)N1CCC[C@H](N1)C(=O)OCC(C)(C)C2 [Compound A540]	–	–	10 to 100	1000 to 10000	100 to 1000	100 to 1000	100 to 1000	100 to 1000	10 to 100	100 to 1000	10 to 100	100 to 1000	100 to 1000	–	10 to 100	10 to 100	< 5000
CCn1c(-c2cccnc2[C@H](C)OC)c2c3cc(ccc31)-c1csc(n1)C[C@H](NC(=O)[C@H](C(C)C)N(C)C(=O)N1C[C@H](N)[C@@H](O)C1)C(=O)N1CCC[C@H](N1)C(=O)OCC(C)(C)C2 [Compound A581]	100 to 1000	1000 to 10000	10 to 100	100 to 1000	100 to 1000	100 to 1000	100 to 1000	100 to 1000	10 to 100	100 to 1000	10 to 100	100 to 1000	100 to 1000	< 5000	–	–	–
CCn1c(-c2cccnc2[C@H](C)OC)c2c3cc(ccc31)-c1csc(n1)C[C@H](NC(=O)[C@H](C(C)C)N(C)C(=O)N1CCO[C@H](c3ccccc3)C1)C(=O)N1CCC[C@H](N1)C(=O)OCC(C)(C)C2 [Compound A582]	10 to 100	100 to 1000	10 to 100	100 to 1000	100 to 1000	100 to 1000	100 to 1000	100 to 1000	10 to 100	100 to 1000	10 to 100	100 to 1000	100 to 1000	< 5000	–	–	–
CCn1c(-c2cccnc2[C@H](C)OC)c2c3cc(ccc31)-c1csc(n1)C[C@H](NC(=O)[C@H](C(C)C)N(C)C(=O)N1CCO[C@@H](CN(C)C)C1)C(=O)N1CCC[C@H](N1)C(=O)OCC(C)(C)C2 [Compound A591]	10 to 100	10 to 100	10 to 100	100 to 1000	100 to 1000	100 to 1000	100 to 1000	100 to 1000	10 to 100	100 to 1000	10 to 100	100 to 1000	10 to 100	–	–	–	–
CCn1c(-c2cccnc2[C@H](C)OC)c2c3cc(ccc31)-c1csc(n1)C[C@H](NC(=O)[C@H](C(C)C)N(C)C(=O)N1CCO[C@@H](c3ccccc3)C1)C(=O)N1CCC[C@H](N1)C(=O)OCC(C)(C)C2 [Compound A600]	100 to 1000	100 to 1000	10 to 100	100 to 1000	100 to 1000	100 to 1000	100 to 1000	100 to 1000	10 to 100	10 to 100	10 to 100	100 to 1000	10 to 100	< 5000	–	–	–
